Here are results for 23 compounds from ChEMBL document CHEMBL4651402, “Screening of ~5500 FDA-approved drugs and clinical candidates for anti-SARS-CoV-2 activity” (2021).

pIC50: −log10 of the molar value.

One may read the pIC50 as −log10 of the IC50, conventionally taken in molar units.

The subject of this test is SARS-CoV-2. In words: microbe, parasite or virus in culture. Conditions: Severe acute respiratory syndrome coronavirus 2, Vero C1008, 48 h; for IC50: read-out: pIC50 (converted).

`Nc1nc(=O)n([C@H]2C[C@H](O)[C@@H](CO)O2)cc1F`: the negative logarithm of the IC50 (pIC50) is under 4.70 and the IC50 is over 20 µM.

As to `C[C@@H](NCCCc1cccc(C(F)(F)F)c1)c1cccc2ccccc12`, the pIC50 is under 4.70 and the IC50 was over 20 µM.

For the compound `CC(=O)Oc1cc2c(s1)CCN(C(C(=O)C1CC1)c1ccccc1F)C2` (stereo unspecified), the pIC50 is under 4.70 and the IC50 is over 20 µM.

With `CC1=N[C@H](C(=O)O)[C@@H](O)CN1`, the pIC50 was under 4.70 and the IC50 was over 20 µM.

For `CC1(C)C2CC[C@@]1(C)C(=O)C2`, the pIC50 was under 4.70 and the IC50 was over 20 µM.

On to `C=C(C)C(=O)OCCCCCCCCCCCC`, for which the negative-log IC50 (pIC50) was under 4.70 and the IC50 is over 20 µM.

In the case of `CC(C)[C@H](N/C(=N\S(=O)(=O)c1ccc(Cl)cc1)N1C[C@H](c2ccccc2)C(c2ccc(Cl)cc2)=N1)C(N)=O`, the pIC50 is under 4.70 and the IC50 is over 20 µM.

`CC[C@@H]1C2C[C@H](O)CC[C@]2(C)[C@H]2CC[C@]3(C)[C@@H]([C@H](C)CCC(=O)O)CC[C@H]3[C@@H]2[C@@H]1O` (stereo partly specified): the negative-log IC50 (pIC50) was under 4.70 and the IC50 is over 20 µM.

For the compound `COc1ccc([C@@H]2CNC(=O)[C@@H](Cc3cccc(C)c3)C2)cc1OC1CCCC1`, the pIC50 is under 4.70 and the IC50 was over 20 µM.

In the case of `CC(C)(C)C(=O)Oc1ccc2c(c1)O[C@@H](c1ccc(OCCN3CCCCC3)cc1)C1=C2COc2cc(OC(=O)C(C)(C)C)ccc21`, the pIC50 is under 4.70 and the IC50 is over 20 µM.

In the case of `O=C(/N=C(/Nc1cc(F)cc(Cl)c1)Nc1cc(C(F)(F)F)[nH]n1)c1cccc(Cl)c1`, the negative logarithm of the IC50 (pIC50) was under 4.70 and the IC50 was over 20 µM.

Take `Cc1nc(N(C)C(=O)Cc2ccc(-c3ccccn3)cc2)sc1S(N)(=O)=O`: the pIC50 was under 4.70 and the IC50 was over 20 µM.

For `COc1ccc(-n2[nH]c(=O)c3[nH]c4cc(Cl)ccc4c(=O)c3c2=O)c(C)c1`, the negative logarithm of the IC50 (pIC50) was under 4.70 and the IC50 was over 20 µM.

Consider `Cc1nc(N2CCOC[C@@H]2C)nc(-n2ccnc2)c1[N+](=O)[O-]`, for which the pIC50 was under 4.70 and the IC50 was over 20 µM.

Turning to `O=C(O)CC[C@H]1CC[C@](c2cc(F)ccc2F)(S(=O)(=O)c2ccc(Cl)cc2)CC1`, the negative-log IC50 (pIC50) is under 4.70 and the IC50 was over 20 µM.

Turning to `CO[C@H]1/C=C\C=C(\C)C(=O)NC2=CC(=O)C(NCCN(C)C)=C(C[C@@H](C)C[C@H](OC)[C@H](O)[C@@H](C)/C=C(/C)[C@@H]1OC(N)=O)C2=O`, the pIC50 was under 4.70 and the IC50 was over 20 µM.

Take `C=C(C)[C@@H]1CC[C@]2(C(=O)O)CC[C@]3(C)[C@H](CCC4[C@@]5(C)CC[C@@H](O)C(C)(C)C5CC[C@]43C)C12` (stereo partly specified): the pIC50 is under 4.70 and the IC50 was over 20 µM.

Consider `CC(=O)O[C@H]1CC[C@@]2(C)C(CC[C@]3(C)C2C(=O)C=C2[C@H]4C[C@@](C)(C(=O)O)CC[C@]4(C)CC[C@]23C)C1(C)C` (stereo partly specified), for which the pIC50 is under 4.70 and the IC50 is over 20 µM.

With `CC1CC[C@@]2(OC1)OC1CC3C4CC[C@@H]5C[C@@H](O)CC[C@]5(C)C4CC[C@]3(C)C1[C@@H]2C` (stereo partly specified), the pIC50 was under 4.70 and the IC50 was over 20 µM.

As for `CCC[C@@H]1C[C@@H](C(=O)NC(C2O[C@H](SC)[C@H](OP(=O)(O)O)[C@@H](O)[C@H]2O)[C@H](C)Cl)N(C)C1` (stereo partly specified), the pIC50 was under 4.70 and the IC50 is over 20 µM.

`C[C@H](CCC(=O)O)[C@H]1CC[C@H]2[C@@H]3CCC4C[C@H](O)CC[C@]4(C)[C@H]3CC[C@]12C` (stereo partly specified): the pIC50 was under 4.70 and the IC50 was over 20 µM.

In the case of `CC(CCC(=O)O)C1CCC2C3C(=O)C[C@@H]4CC(=O)CC[C@]4(C)C3CC(=O)[C@]12C` (stereo partly specified), the pIC50 was under 4.70 and the IC50 was over 20 µM.

Regarding `CC(CNS(=O)(=O)C(C)C)c1ccc(NC(=O)c2cc(F)cc(F)c2)cc1` (stereo unspecified), the pIC50 is under 4.70 and the IC50 is over 20 µM.
